Reference: patent publication US10662205B2, “Cyclic boronic acid ester derivatives and therapeutic uses thereof” (priority 2014, dated 2020)
Like-named read-outs stand apart in the source and are kept apart here.

Experiments:
KP1009 (CTX-M-15) [1] = test: Tigemonam potentiation (MPC@4); assay type: cell-based
KP1005 (CTX-M-14) [2] = test: Aztreonam potentiation (MPC@4); assay type: cell-based; conditions: aztreonam 4 μg/mL
KP1010 (SHV-12) [3] = test: Aztreonam potentiation (MPC@4); assay type: cell-based; conditions: aztreonam 4 μg/mL
KP1004 (KPC-2) [4] = test: Biapenem potentiation (MPC@1); conditions: biapenem 1 μg/mL
EC1010 (CMY-6) [5] = test: Tigemonam potentiation (MPC@4); assay type: cell-based
KP1086 (OXA-48) = test: Biapenem potentiation (MPC@1); conditions: biapenem 1 μg/mL
ec302 (TEM-10) [6] = test: Tigemonam potentiation (MPC@4); assay type: cell-based; conditions: tigemonam 4 μg/mL
KP1004 (KPC-2) [7] = test: Aztreonam potentiation (MPC@4); assay type: cell-based; conditions: aztreonam 4 μg/mL
KP1010 (SHV-12) [8] = test: Tigemonam potentiation (MPC@4); assay type: cell-based
ec302 (TEM-10) [9] = test: Aztreonam potentiation (MPC@4); assay type: cell-based; conditions: aztreonam 4 μg/mL
KP1009 (CTX-M-15) [10] = test: Aztreonam potentiation (MPC@4); assay type: cell-based; conditions: aztreonam 4 μg/mL
CMY-2 = CMY-2 (Klebsiella pneumoniae, UniProt Q48434); test: Inhibition of nitrocefin cleavage by purified enzyme (Ki); assay type: biochemical
Procedure: (§1) Ki values of inhibition of purified class A, C and D enzymes were determined spectrophotometrically using nitrocefin as reporter substrate. Purified enzymes were mixed with various concentrations of inhibitors in reaction buffer and incubated for 10 min at room temperature. Nitrocefin was added and substrate cleavage profiles were recorded at 490 nm every 10 sec for 10 min. These experiments confirmed that the described compounds are inhibitors with a broad-spectrum of activity towards various β-lactamases.

KPC-2 = KPC-2 (Klebsiella pneumoniae, UniProt Q9F663); test: as above; assay type: biochemical; conditions: nitrocefin reporter substrate; 10 min preincubation; read-out: Ki KPC-2, NCF
Procedure: as §1

OXA-48 = OXA-48 (Klebsiella pneumoniae, UniProt Q6XEC0); test: as above; assay type: biochemical; conditions: nitrocefin reporter substrate; 10 min preincubation; read-out: Ki OXA-48, NCF
Procedure: as §1

ECL1002 [11] = test: Aztreonam potentiation (MPC@4); assay type: cell-based; conditions: aztreonam 4 μg/mL
ec308 (SHV-5) [12] = test: Tigemonam potentiation (MPC@4); assay type: cell-based; conditions: tigemonam 4 μg/mL
EC1010 (CMY-6) [13] = test: Aztreonam potentiation (MPC@4); assay type: cell-based; conditions: aztreonam 4 μg/mL
ECL1002 [14] = test: Tigemonam potentiation (MPC@4); assay type: cell-based; conditions: tigemonam 4 μg/mL
ec308 (SHV-5) [15] = test: Aztreonam potentiation (MPC@4); assay type: cell-based; conditions: aztreonam 4 μg/mL
PAM1032/KPC-2 = test: Biapenem potentiation MPC64, efflux proficient strain; assay type: cell-based, Pseudomonas aeruginosa; set-up: unit not given here; conditions: efflux proficient (MexAB-OprM overexpressed); decrease biapenem MIC 64-fold, 32 to 0.5 μg/ml
Procedure: (§2) Efflux of BLIs from Pseudomonas aeruginosa by the MexAB-OprM efflux pump was also evaluated. The plasmid expressing the gene encoding KPC-2 was introduced into two strains of P. aeruginosa, PAM1032 and PAM1154 that overexpressed or lacked MexAB-OprM, respectively. Due to expression of KPC-2 both strains became resistant to biapenem. […] Potency of BLIs to potentiate biapenem in these strains was determined. […] The ratio of MPC64 values for each BLI in PAM1032/KPC-2 (efflux proficient) and PAM1154/KPC-2 (efflux deficient) was determined to generate the Efflux Index (EI).

KP1005 (CTX-M-14) [16] = test: Tigemonam potentiation (MPC@4); assay type: cell-based; conditions: tigemonam 4 μg/mL
CTX-M-14 = CTX-M-14 (Escherichia coli, UniProt Q9L5C7); test: Inhibition of nitrocefin cleavage by purified enzyme (Ki); assay type: biochemical; conditions: nitrocefin reporter substrate; 10 min preincubation; read-out: Ki CTX-M-14, NCF
Procedure: as §1, with “min.” for “min. These experiments confirmed that the described compounds are inhibitors with a broad-spectrum of activity towards various β-lactamases.”

SHV-12 = SHV-12 (Klebsiella pneumoniae, UniProt P0AD64, E235K/G234S/L31Q); test: as above; assay type: biochemical
Procedure: as §1, with “min.” for “min. These experiments confirmed that the described compounds are inhibitors with a broad-spectrum of activity towards various β-lactamases.”

PAM1154/KPC-2 = test: Biapenem potentiation MPC64, efflux deficient strain; assay type: cell-based, Pseudomonas aeruginosa; set-up: unit not given here; conditions: efflux deficient (lacks MexAB-OprM); decrease biapenem MIC 64-fold, 32 to 0.5 μg/ml
Procedure: as §2

P99 = P99 (Enterobacter cloacae, UniProt P05364); test: biochemical; conditions: nitrocefin reporter substrate; 10 min preincubation; read-out: Ki P99, NCF
Procedure: as §1, with “min.” for “min. These experiments confirmed that the described compounds are inhibitors with a broad-spectrum of activity towards various β-lactamases.”

[17] = tigemonam 4 μg/mL, EC1010, CMY-6
[18] = nitrocefin reporter substrate, 10 min preincubation, read-out: Ki CMY-2, NCF

Sequence of CMY-2 (Q48434 21-381, species assumed): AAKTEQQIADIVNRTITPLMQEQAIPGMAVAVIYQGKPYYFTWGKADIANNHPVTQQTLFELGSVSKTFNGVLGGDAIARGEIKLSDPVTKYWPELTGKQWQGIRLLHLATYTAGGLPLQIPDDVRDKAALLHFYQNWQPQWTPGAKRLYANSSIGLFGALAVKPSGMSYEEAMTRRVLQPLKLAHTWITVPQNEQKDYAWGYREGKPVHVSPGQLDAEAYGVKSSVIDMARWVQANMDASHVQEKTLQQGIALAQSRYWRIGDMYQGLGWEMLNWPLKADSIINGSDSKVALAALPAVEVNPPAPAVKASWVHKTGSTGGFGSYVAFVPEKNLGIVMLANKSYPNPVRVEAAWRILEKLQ
Sequence of CTX-M-14 (Q9L5C7 29-291): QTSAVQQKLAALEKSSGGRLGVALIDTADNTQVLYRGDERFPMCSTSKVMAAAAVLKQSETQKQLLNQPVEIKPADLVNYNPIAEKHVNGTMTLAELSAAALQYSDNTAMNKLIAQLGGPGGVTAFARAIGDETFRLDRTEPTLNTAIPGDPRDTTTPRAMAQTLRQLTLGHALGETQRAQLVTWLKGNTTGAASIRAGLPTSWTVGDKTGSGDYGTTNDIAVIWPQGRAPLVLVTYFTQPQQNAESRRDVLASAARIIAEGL
Sequence of SHV-12 (P0AD64 22-286 L31Q/G234S/E235K): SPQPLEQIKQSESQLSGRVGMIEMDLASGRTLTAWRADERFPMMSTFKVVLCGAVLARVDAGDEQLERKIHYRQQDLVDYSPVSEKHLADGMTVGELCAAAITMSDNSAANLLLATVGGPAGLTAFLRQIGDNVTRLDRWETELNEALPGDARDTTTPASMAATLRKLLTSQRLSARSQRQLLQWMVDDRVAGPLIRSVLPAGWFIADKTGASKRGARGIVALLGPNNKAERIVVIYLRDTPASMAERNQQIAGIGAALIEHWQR
Sequence of OXA-48 (Q6XEC0 23-265, looked up, species assumed): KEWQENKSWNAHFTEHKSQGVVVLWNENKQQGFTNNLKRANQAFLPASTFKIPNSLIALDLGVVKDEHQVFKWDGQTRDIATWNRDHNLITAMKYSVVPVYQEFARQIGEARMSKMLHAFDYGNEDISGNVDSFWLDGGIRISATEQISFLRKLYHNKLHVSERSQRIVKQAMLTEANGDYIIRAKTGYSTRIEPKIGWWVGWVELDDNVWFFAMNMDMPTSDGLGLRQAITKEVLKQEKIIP
Sequence of KPC-2 (Q9F663 25-293, looked up, species assumed): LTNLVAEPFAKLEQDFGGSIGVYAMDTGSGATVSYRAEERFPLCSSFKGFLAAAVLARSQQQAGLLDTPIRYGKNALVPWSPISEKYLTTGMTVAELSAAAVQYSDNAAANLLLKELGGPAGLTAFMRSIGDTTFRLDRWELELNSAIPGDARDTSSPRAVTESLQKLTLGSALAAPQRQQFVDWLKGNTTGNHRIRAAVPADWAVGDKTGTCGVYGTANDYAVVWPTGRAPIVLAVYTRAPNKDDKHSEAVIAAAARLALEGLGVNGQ
Sequence of P99 (P05364 21-381): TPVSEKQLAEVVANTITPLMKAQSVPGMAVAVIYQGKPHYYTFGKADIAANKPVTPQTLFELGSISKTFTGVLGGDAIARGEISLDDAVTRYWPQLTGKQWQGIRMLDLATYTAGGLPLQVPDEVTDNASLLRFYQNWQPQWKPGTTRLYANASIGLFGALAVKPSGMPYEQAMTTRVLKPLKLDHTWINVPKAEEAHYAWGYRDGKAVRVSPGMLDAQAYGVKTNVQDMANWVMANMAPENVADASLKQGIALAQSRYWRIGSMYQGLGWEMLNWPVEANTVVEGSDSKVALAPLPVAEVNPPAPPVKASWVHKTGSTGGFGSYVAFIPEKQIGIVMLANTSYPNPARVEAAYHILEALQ

Structure (SMILES)	MPC@4 aztreonam potentiation (KP1005 (CTX-M-14) [2])	MPC@4 aztreonam potentiation (KP1010 (SHV-12) [3])	MPC@1 biapenem potentiation (KP1004 (KPC-2) [4])	MPC@4 tigemonam potentiation (EC1010 (CMY-6) [5]; [17])	MPC@1 biapenem potentiation (KP1086 (OXA-48))	MPC@4 tigemonam potentiation (ec302 (TEM-10) [6])	MPC@4 aztreonam potentiation (KP1004 (KPC-2) [7])	MPC@4 aztreonam potentiation (ec302 (TEM-10) [9])	MPC@4 aztreonam potentiation (KP1009 (CTX-M-15) [10])	Ki (KPC-2)	Ki (OXA-48)	MPC@4 aztreonam potentiation (ECL1002 [11])	MPC@4 tigemonam potentiation (ec308 (SHV-5) [12])	MPC@4 aztreonam potentiation (EC1010 (CMY-6) [13])	MPC@4 tigemonam potentiation (ECL1002 [14])	MPC@4 tigemonam potentiation (KP1009 (CTX-M-15) [1])	MPC@4 aztreonam potentiation (ec308 (SHV-5) [15])	MPC@4 tigemonam potentiation (KP1005 (CTX-M-14) [16])	MPC@4 tigemonam potentiation (KP1010 (SHV-12) [8])	Ki (CMY-2; [18])	further results
C[C@]1(Cn2ccnn2)[C@H](C(=O)O)N2C(=O)C[C@H]2S1(=O)=O [Tazobactam, reference compound]	Y (Y = 5 μg/mL < MPC@4 ≤ 20 μg/mL)	X (X = MPC@4 ≤ 5 μg/mL)	Z (Z = MPC@1 > 20 μg/mL)	X (X = MPC@4 ≤ 5 μg/mL)	Y (Y = 5 μg/mL < MPC@1 ≤ 20 μg/mL)	X (X = MPC@4 ≤ 5 μg/mL)	Z (Z = MPC@4 > 20 μg/mL)	X (X = MPC@4 ≤ 5 μg/mL)	Y (Y = 5 μg/mL < MPC@4 ≤ 20 μg/mL)	> 1000 nM	100 to 1000 nM	Z (Z = MPC@4 > 20 μg/mL)	X (X = MPC@4 ≤ 5 μg/mL)	Y (Y = 5 μg/mL < MPC@4 ≤ 20 μg/mL)							MPC@4 tigemonam potentiation (KP1009 (CTX-M-15) [1]; tigemonam 4 μg/mL, KP1009, CTX-M-15): Y (Y = 5 μg/mL < MPC@4 ≤ 20 μg/mL); MPC@4 tigemonam potentiation (KP1010 (SHV-12) [8]; tigemonam 4 μg/mL, KP1010, SHV-12): X (X = MPC@4 ≤ 5 μg/mL); Ki (CMY-2): 100 to 1000 nM
O=C(CSc1nncs1)N[C@H]1CC=C[C@@H]2CC(=O)OB1O2 [Compound 7, 2-(1,3,4-THIADIAZOL-2-YLTHIO)-N-((2R,6S)-8-OXO-9,10-DIOXA-1-BORABICYCLO[4.3.1]DEC-4-EN-2-YL)ACETAMIDE]	X (X = MPC@4 ≤ 5 μg/mL)	X (X = MPC@4 ≤ 5 μg/mL)	X (X = MPC@1 ≤ 5 μg/mL)	X (X = MPC@4 ≤ 5 μg/mL)	Z (Z = MPC@1 > 20 μg/mL)	Y (Y = 5 μg/mL < MPC@4 ≤ 20 μg/mL)	X (X = MPC@4 ≤ 5 μg/mL)	X (X = MPC@4 ≤ 5 μg/mL)	X (X = MPC@4 ≤ 5 μg/mL)	100 to 1000 nM	< 100 nM	X (X = MPC@4 ≤ 5 μg/mL)	X (X = MPC@4 ≤ 5 μg/mL)	X (X = MPC@4 ≤ 5 μg/mL)	X (X = MPC@4 ≤ 5 μg/mL)	X (key: X = MPC@4 ≤ 5 μg/mL; Y = 5 μg/mL < MPC@4 ≤ 20 μg/mL; Z = MPC@4 > 20 μg/mL)	X (X = MPC@4 ≤ 5 μg/mL)	X (X = MPC@4 ≤ 5 μg/mL)	X (key: X = MPC@4 ≤ 5 μg/mL; Y = 5 μg/mL < MPC@4 ≤ 20 μg/mL; Z = MPC@4 > 20 μg/mL)	< 100 nM	PAM1032/KPC-2 Biapenem MPC64 (PAM1032/KPC-2): 40; Ki (CTX-M-14): < 100 nM; Ki (SHV-12): < 100 nM; PAM1154/KPC-2 Biapenem MPC64 (PAM1154/KPC-2): 5; Ki (P99): < 100 nM
O=C(O)[C@H]1/C(=C/CO)O[C@@H]2CC(=O)N21 [Clavulanic Acid, reference compound]	X (X = MPC@4 ≤ 5 μg/mL)	X (X = MPC@4 ≤ 5 μg/mL)	Y (Y = 5 μg/mL < MPC@1 ≤ 20 μg/mL)		Z (Z = MPC@1 > 20 μg/mL)	X (X = MPC@4 ≤ 5 μg/mL)	Z (Z = MPC@4 > 20 μg/mL)	X (X = MPC@4 ≤ 5 μg/mL)	X (X = MPC@4 ≤ 5 μg/mL)	> 1000 nM	> 1000 nM	Z (Z = MPC@4 > 20 μg/mL)	X (X = MPC@4 ≤ 5 μg/mL)	Z (Z = MPC@4 > 20 μg/mL)	Y (Y = 5 μg/mL < MPC@4 ≤ 20 μg/mL)	X (key: X = MPC@4 ≤ 5 μg/mL; Y = 5 μg/mL < MPC@4 ≤ 20 μg/mL; Z = MPC@4 > 20 μg/mL)	X (X = MPC@4 ≤ 5 μg/mL)	X (X = MPC@4 ≤ 5 μg/mL)	X (key: X = MPC@4 ≤ 5 μg/mL; Y = 5 μg/mL < MPC@4 ≤ 20 μg/mL; Z = MPC@4 > 20 μg/mL)	> 1000 nM	MPC@4 tigemonam potentiation (EC1010 (CMY-6) [5]): Y (key: X = MPC@4 ≤ 5 μg/mL; Y = 5 μg/mL < MPC@4 ≤ 20 μg/mL; Z = MPC@4 > 20 μg/mL); Ki (CTX-M-14): < 100 nM
N#CCSCC(=O)N[C@H]1CC=C[C@@H]2CC(=O)OB1O2 [Compound 2, 2-(CYANOMETHYLTHIO)-N-((2R,6S)-8-OXO-9,10-DIOXA-1-BORABICYCLO[4.3.1]DEC-4-EN-2-YL)ACETAMIDE]	X (X = MPC@4 ≤ 5 μg/mL)	X (X = MPC@4 ≤ 5 μg/mL)	X (X = MPC@1 ≤ 5 μg/mL)	X (X = MPC@4 ≤ 5 μg/mL)	Z (Z = MPC@1 > 20 μg/mL)	Y (Y = 5 μg/mL < MPC@4 ≤ 20 μg/mL)	X (X = MPC@4 ≤ 5 μg/mL)	X (X = MPC@4 ≤ 5 μg/mL)	X (X = MPC@4 ≤ 5 μg/mL)	100 to 1000 nM	100 to 1000 nM	X (X = MPC@4 ≤ 5 μg/mL)	X (X = MPC@4 ≤ 5 μg/mL)	X (X = MPC@4 ≤ 5 μg/mL)	X (X = MPC@4 ≤ 5 μg/mL)	X (key: X = MPC@4 ≤ 5 μg/mL; Y = 5 μg/mL < MPC@4 ≤ 20 μg/mL; Z = MPC@4 > 20 μg/mL)	X (X = MPC@4 ≤ 5 μg/mL)	X (X = MPC@4 ≤ 5 μg/mL)	X (key: X = MPC@4 ≤ 5 μg/mL; Y = 5 μg/mL < MPC@4 ≤ 20 μg/mL; Z = MPC@4 > 20 μg/mL)	< 100 nM	PAM1032/KPC-2 Biapenem MPC64 (PAM1032/KPC-2): 80; Ki (CTX-M-14): < 100 nM; Ki (SHV-12): < 100 nM; PAM1154/KPC-2 Biapenem MPC64 (PAM1154/KPC-2): 5; Ki (P99): < 100 nM
Cc1nnc(SCC(=O)N[C@H]2CC=C[C@@H]3CC(=O)OB2O3)s1 [Compound 8, 2-(5-METHYL-1,3,4-THIADIAZOL-2-YLTHIO)-N-((2R,6S)-8-OXO-9,10-DIOXA-1-BORABICYCLO[4.3.1]DEC-4-EN-2-YL)ACETAMIDE]	X (X = MPC@4 ≤ 5 μg/mL)	X (X = MPC@4 ≤ 5 μg/mL)	X (X = MPC@1 ≤ 5 μg/mL)	X (X = MPC@4 ≤ 5 μg/mL)	Z (Z = MPC@1 > 20 μg/mL)	Y (Y = 5 μg/mL < MPC@4 ≤ 20 μg/mL)	Y (Y = 5 μg/mL < MPC@4 ≤ 20 μg/mL)	X (X = MPC@4 ≤ 5 μg/mL)		100 to 1000 nM	< 100 nM	X (X = MPC@4 ≤ 5 μg/mL)	Y (Y = 5 μg/mL < MPC@4 ≤ 20 μg/mL)	Y (Y = 5 μg/mL < MPC@4 ≤ 20 μg/mL)	X (X = MPC@4 ≤ 5 μg/mL)	X (key: X = MPC@4 ≤ 5 μg/mL; Y = 5 μg/mL < MPC@4 ≤ 20 μg/mL; Z = MPC@4 > 20 μg/mL)	X (X = MPC@4 ≤ 5 μg/mL)	Y (Y = 5 μg/mL < MPC@4 ≤ 20 μg/mL)	X (key: X = MPC@4 ≤ 5 μg/mL; Y = 5 μg/mL < MPC@4 ≤ 20 μg/mL; Z = MPC@4 > 20 μg/mL)	< 100 nM	Ki (CTX-M-14): < 100 nM; Ki (SHV-12): < 100 nM; Ki (P99): < 100 nM
